The term IC50 denotes the concentration that gives 50% inhibition.

These results are taken from US10660877B2 (BRISTOL-MYERS SQUIBB COMPANY, priority 2016, dated 2020).

One assay deals with human TLR8 (Homo sapiens (Human), UniProt Q9NR97). Put plainly: TLR8 inhibition reporter assay (HEK-Blue cells, SEAP reporter, R848 stimulation). (In general: Reporter assays use an easily measured gene product as a stand-in for the process of interest.)
The next assay deals with human TLR7 (Homo sapiens (Human), UniProt Q9NYK1). Put plainly: TLR7 inhibition reporter assay (HEK-Blue cells, SEAP reporter, gardiquimod stimulation). As to conditions: HEK-Blue cells overexpressing human TLR7, gardiquimod 7.5 μM. It is filed as cell-based.
The target in another assay is human TLR9 (Homo sapiens (Human), UniProt Q9NR96). The assay is described as follows: TLR9 inhibition reporter assay (HEK-Blue cells, SEAP reporter, ODN2006 stimulation).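 Note: compounds tested over 0.05 nM to 50 µM, 22 h incubation, inhibition taken as SEAP signal drop from agonist plus DMSO wells toward a known inhibitor control.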
[1] abbreviates: read-out: TLR8 IC50, HEK-Blue cells overexpressing human TLR8, R848 15.9 μM.
Where [2] appears, read: read-out: TLR9 IC50, HEK-Blue cells overexpressing human TLR9, ODN2006 5 nM.

SMILES strings stand for the structures. Like-named read-outs stand apart in the source and are kept apart here.

human TLR8, sequence (Q9NR97 27-1041): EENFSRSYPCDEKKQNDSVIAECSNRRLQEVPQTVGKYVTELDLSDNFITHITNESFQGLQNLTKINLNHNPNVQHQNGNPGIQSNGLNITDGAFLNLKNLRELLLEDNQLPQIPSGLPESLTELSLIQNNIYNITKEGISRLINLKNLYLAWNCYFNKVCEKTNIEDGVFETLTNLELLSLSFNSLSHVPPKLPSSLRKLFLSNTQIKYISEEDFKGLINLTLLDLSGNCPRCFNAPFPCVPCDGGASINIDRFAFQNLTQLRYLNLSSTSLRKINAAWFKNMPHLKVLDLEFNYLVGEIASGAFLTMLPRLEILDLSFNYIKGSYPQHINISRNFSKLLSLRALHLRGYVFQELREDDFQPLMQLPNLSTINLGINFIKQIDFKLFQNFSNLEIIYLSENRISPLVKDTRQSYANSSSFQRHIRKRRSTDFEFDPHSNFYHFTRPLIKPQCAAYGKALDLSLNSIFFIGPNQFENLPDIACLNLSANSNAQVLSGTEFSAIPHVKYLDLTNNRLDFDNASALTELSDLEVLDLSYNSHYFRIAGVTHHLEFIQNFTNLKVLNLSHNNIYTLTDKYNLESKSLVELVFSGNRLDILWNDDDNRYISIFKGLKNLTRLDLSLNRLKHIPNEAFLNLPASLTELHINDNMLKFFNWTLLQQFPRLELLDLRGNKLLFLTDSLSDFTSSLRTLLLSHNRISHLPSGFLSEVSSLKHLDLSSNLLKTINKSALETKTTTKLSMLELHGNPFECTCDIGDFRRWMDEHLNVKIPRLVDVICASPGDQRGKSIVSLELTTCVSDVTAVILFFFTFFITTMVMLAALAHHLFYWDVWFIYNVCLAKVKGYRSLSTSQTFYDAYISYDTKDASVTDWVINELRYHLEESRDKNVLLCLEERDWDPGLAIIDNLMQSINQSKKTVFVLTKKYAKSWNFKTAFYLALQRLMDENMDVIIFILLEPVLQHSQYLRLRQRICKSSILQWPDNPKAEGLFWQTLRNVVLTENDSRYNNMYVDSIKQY
human TLR7, sequence (Q9NYK1 27-1049): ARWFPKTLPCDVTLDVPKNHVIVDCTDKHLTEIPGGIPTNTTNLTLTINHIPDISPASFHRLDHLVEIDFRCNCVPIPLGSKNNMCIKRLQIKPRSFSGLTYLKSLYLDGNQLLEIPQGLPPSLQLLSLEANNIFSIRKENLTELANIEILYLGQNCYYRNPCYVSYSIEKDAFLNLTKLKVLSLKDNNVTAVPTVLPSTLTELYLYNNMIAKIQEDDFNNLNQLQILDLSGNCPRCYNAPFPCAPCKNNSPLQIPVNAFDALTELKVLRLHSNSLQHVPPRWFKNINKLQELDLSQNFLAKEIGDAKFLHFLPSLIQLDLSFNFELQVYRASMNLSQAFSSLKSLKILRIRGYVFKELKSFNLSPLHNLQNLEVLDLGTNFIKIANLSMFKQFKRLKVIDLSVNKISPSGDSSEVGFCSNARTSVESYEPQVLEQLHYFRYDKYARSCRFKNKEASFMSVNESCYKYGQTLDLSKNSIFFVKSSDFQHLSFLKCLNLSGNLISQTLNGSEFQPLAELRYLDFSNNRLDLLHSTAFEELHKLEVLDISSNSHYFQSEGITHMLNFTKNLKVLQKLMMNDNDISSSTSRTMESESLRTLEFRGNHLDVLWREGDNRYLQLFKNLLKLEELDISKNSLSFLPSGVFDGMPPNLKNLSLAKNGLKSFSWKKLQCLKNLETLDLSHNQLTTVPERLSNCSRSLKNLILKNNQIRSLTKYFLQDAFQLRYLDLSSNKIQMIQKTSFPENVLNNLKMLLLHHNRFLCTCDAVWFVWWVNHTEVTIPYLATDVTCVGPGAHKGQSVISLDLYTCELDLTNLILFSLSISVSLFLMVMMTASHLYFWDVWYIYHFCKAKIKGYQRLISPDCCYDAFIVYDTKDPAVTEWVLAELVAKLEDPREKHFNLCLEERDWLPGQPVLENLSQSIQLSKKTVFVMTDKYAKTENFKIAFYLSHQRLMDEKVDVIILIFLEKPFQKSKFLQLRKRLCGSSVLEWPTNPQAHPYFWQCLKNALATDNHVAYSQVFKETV
human TLR9, sequence (Q9NR96 26-1032): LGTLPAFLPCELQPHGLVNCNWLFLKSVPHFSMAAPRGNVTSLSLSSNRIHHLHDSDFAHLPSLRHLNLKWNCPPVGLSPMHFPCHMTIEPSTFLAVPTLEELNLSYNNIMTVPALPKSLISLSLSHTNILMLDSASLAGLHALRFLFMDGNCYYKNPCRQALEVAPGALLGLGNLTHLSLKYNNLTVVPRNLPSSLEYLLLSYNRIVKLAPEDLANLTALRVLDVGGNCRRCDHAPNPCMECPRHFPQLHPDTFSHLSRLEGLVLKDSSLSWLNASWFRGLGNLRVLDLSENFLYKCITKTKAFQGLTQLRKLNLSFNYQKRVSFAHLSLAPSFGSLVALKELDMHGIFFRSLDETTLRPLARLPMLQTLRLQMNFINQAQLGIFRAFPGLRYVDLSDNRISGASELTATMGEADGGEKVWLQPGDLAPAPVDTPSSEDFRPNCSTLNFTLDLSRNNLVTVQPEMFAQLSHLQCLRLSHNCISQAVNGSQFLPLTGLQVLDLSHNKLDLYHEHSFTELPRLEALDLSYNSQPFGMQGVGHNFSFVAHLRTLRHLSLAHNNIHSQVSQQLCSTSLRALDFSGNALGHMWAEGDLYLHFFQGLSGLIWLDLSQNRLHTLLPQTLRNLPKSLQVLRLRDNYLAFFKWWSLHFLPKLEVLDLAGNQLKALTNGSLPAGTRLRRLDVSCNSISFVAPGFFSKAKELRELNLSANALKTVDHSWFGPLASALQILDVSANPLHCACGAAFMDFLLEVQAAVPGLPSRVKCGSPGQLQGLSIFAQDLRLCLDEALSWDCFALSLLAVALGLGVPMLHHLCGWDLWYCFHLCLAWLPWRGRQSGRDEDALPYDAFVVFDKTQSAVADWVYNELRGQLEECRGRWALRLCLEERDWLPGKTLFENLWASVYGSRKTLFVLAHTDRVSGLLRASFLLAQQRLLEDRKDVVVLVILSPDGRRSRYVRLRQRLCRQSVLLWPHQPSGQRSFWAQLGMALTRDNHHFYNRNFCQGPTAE
Experimental for human TLR8: TLR7/8/9 Inhibition Reporter Assays
Briefly, cells are seeded into Greiner 384 well plates (15000 cells per well for TLR7, 20,000 for TLR8 and 25,000 for TLR9) and then treated with test compounds in DMSO to yield a final dose response concentration range of 0.05 nM-50 μM. […] After a 22 hour incubation at 37° C., 5% CO2, SEAP levels are determined with the addition of HEK-Blue™ Detection reagent (Invivogen), a cell culture medium that allows for detection of SEAP, according to manufacturer's specifications. The percent inhibition is determined as the % reduction in the HEK-Blue signal present in wells treated with agonist plus DMSO alone compared to wells treated with a known inhibitor.

For `Cc1cc(-c2[nH]c3ccc(C4CCN(C(=O)OC(C)C)CC4)cc3c2C(C)C)ccn1` [Example 559, isopropyl 4-(3-isopropyl-2-(2-methylpyridin-4-yl)-1H-indol-5-yl)piperidine-1-carboxylate], the results for the IC50 at human TLR8 (setting [1]), against human TLR7 and at human TLR9 (setting [2]) were 878 nM, 500 nM and 13500 nM, respectively.

Regarding `Cc1cc(-c2[nH]c3ccc(C4CCN(Cc5cncs5)CC4)cc3c2C(C)C)cc(C)n1` [Example 444, 5-((4-(2-(2,6-dimethylpyridin-4-yl)-3-isopropyl-1H-indol-5-yl)piperidin-1-yl)methyl)thiazole], the results for the half-maximal inhibitory concentration (IC50) on human TLR8 (setting [1]), on human TLR7 and at human TLR9 (setting [2]) were 1.6 nM, 3.3 nM and 617 nM, respectively.

Regarding `Cc1cc(-c2[nH]c3ccc(C4CCN(CC(F)F)CC4)cc3c2C(C)C)cc(C)n1` [Example 327, 5-(1-(2,2-difluoroethyl)piperidin-4-yl)-2-(2,6-dimethylpyridin-4-yl)-3-isopropyl-1H-indole], the figures for the IC50 at human TLR8 (setting [1]), against human TLR7 and on human TLR9 (setting [2]) were 52.9 nM, 15.6 nM and 3720 nM, respectively.

In the case of `CCN(C)CC(=O)N1CCC(c2ccc3[nH]c(-c4cc(C)nc(C)c4)c(C(C)C)c3c2)CC1` [Example 356, 1-(4-(2-(2,6-dimethylpyridin-4-yl)-3-isopropyl-1H-indol-5-yl)piperidin-1-yl)-2-(ethyl(methyl)amino)ethan-1-one], the IC50 was 13.9 nM on human TLR8 (setting [1]), 3.3 nM on human TLR7 and 657 nM at human TLR9 (setting [2]).

With `Cc1cc(-c2[nH]c3ccc(C4CCN(C(=O)C5CC(=O)N(C)C5)CC4)cc3c2C(C)C)cc(C)n1` (stereo not drawn) [Example 100, 4-(4-(2-(2,6-dimethylpyridin-4-yl)-3-isopropyl-1H-indol-5-yl)piperidine-1-carbonyl)-1-methylpyrrolidin-2-one], the IC50 against human TLR8 (TLR8 IC50, HEK-Blue cells overexpressing human TLR8, R848 15.9 μM) was found to be 63.8 nM; on human TLR7, 8 nM; on human TLR9 (TLR9 IC50, HEK-Blue cells overexpressing human TLR9, ODN2006 5 nM), 22400 nM.

`Cc1cc(-c2[nH]c3ccc(C4CCN(CC(=O)NC56CC7CC(CC(C7)C5)C6)CC4)cc3c2C(C)C)cc(C)n1` [Example 224, N-(adamantan-1-yl)-2-(4-(2-(2,6-dimethylpyridin-4-yl)-3-isopropyl-1H-indol-5-yl)piperidin-1-yl)acetamide]: the IC50 at human TLR8 (setting [1]) was determined as 820 nM; at human TLR7, 286 nM; at human TLR9 (setting [2]) it was 4130 nM.

Consider `Cc1cc(-c2[nH]c3ccc(C4CCN(CC5COC5)CC4)cc3c2C(C)C)c(F)cn1` [Example 646, 2-(5-fluoro-2-methylpyridin-4-yl)-3-isopropyl-5-(1-(oxetan-3-ylmethyl)piperidin-4-yl)-1H-indole], for which the IC50 at human TLR8 (setting [1]) stood at 4.8 nM; at human TLR7, 12 nM; at human TLR9 (setting [2]) it was 5850 nM.

Turning to `Cc1cc(-c2[nH]c3ccc(C4CCN(C5COC5)CC4)cc3c2C(C)C)ccn1` [Example 711, 3-isopropyl-2-(2-methylpyridin-4-yl)-5-(1-(oxetan-3-yl)piperidin-4-yl)-1H-indole], the figures for the half-maximal inhibitory concentration (IC50) at human TLR8 (setting [1]), against human TLR7 and on human TLR9 (setting [2]) were 11.2 nM, 11 nM and 2160 nM, respectively.

As to `Cc1cc(-c2[nH]c3ccc(C4CCN(Cc5cc(C)on5)CC4)cc3c2C(C)C)c(C)cn1` [Example 685, 3-((4-(2-(2,5-dimethylpyridin-4-yl)-3-isopropyl-1H-indol-5-yl)piperidin-1-yl)methyl)-5-methylisoxazole], the figures for the IC50 on human TLR8 (setting [1]), at human TLR7 and at human TLR9 (setting [2]) were 3.4 nM, 62.5 nM and 7510 nM, respectively.

Take `Cc1cc(-c2[nH]c3ccc(C4CCNC(=O)C4)cc3c2C(C)C)ccn1` (stereo not drawn) [Example 490, 4-(3-isopropyl-2-(2-methylpyridin-4-yl)-1H-indol-5-yl)piperidin-2-one]: the IC50 was 67.4 nM on human TLR8 (setting [1]), 186 nM at human TLR7 and over 50000 nM at human TLR9 (setting [2]).

In the case of `Cc1cc(-c2[nH]c3ccc(C4CCN(C5CCOC(C)(C)C5)CC4)cc3c2C(C)C)cc(C)n1` (stereo not drawn) [Example 453, 2-(2,6-dimethylpyridin-4-yl)-5-(1-(2,2-dimethyltetrahydro-2H-pyran-4-yl)piperidin-4-yl)-3-isopropyl-1H-indole], the IC50 was found to be 6.5 nM on human TLR8 (setting [1]), 8.5 nM on human TLR7 and 255 nM at human TLR9 (setting [2]).

For `Cc1cc(-c2[nH]c3ccc(C4CCN(C5CCCOC5)CC4)cc3c2C(C)C)ccn1` (stereo not drawn) [Example 718, 3-isopropyl-2-(2-methylpyridin-4-yl)-5-(1-(tetrahydro-2H-pyran-3-yl)piperidin-4-yl)-1H-indole], the half-inhibitory concentration (IC50) at human TLR8 (setting [1]) was 6.1 nM; on human TLR7, 22.8 nM; on human TLR9 (setting [2]), 855 nM.

For `CC(C)c1c(-c2cc(Cl)ncc2C#N)[nH]c2ccc(C3CCNCC3)cc12` [Example 26, 6-chloro-4-(3-isopropyl-5-(piperidin-4-yl)-1H-indol-2-yl)nicotinonitrile], the results for the IC50 on human TLR8 (setting [1]), on human TLR7 and on human TLR9 (setting [2]) were 481 nM, 199 nM and 6320 nM, respectively.

For the compound `CNCCN1CCC(c2ccc3[nH]c(-c4cc(OC)ncc4F)c(C)c3c2)CC1` [Example 756, 2-(4-(2-(5-fluoro-2-methoxypyridin-4-yl)-3-methyl-1H-indol-5-yl)piperidin-1-yl)-N-methylethan-1-amine], the figures for the IC50 on human TLR8 (setting [1]), at human TLR7 and at human TLR9 (setting [2]) were 185 nM, 3120 nM and 3300 nM, respectively.

In the case of `Cc1cc(-c2[nH]c3ccc(C4CCN(CC(=O)N(C)C)CC4)cc3c2C(C)C)c(F)c(C)n1` [Example 645, 2-(4-(2-(3-fluoro-2,6-dimethylpyridin-4-yl)-3-isopropyl-1H-indol-5-yl)piperidin-1-yl)-N,N-dimethylacetamide], the IC50 was 5.8 nM at human TLR8 (setting [1]), 1.7 nM at human TLR7 and 7430 nM on human TLR9 (setting [2]).

On to `CC(C)c1c(-c2ccncc2)[nH]c2ccc(C3CCN(C4CCN(C)CC4)CC3)cc12` [Example 525, 3-isopropyl-5-(1′-methyl-[1,4′-bipiperidin]-4-yl)-2-(pyridin-4-yl)-1H-indole], for which the concentration for half-maximal inhibition (IC50) on human TLR8 (setting [1]) was 6 nM; at human TLR7, 44.3 nM; at human TLR9 (setting [2]), 190 nM.

Consider `Cc1cc(-c2[nH]c3ccc(C4CCN(C(=O)c5ccon5)CC4)cc3c2C(C)C)ccn1` [Example 604, (4-(3-isopropyl-2-(2-methylpyridin-4-yl)-1H-indol-5-yl)piperidin-1-yl)(isoxazol-3-yl)methanone], for which the concentration for half-maximal inhibition (IC50) amounted to 190 nM at human TLR8 (setting [1]), 24.9 nM on human TLR7 and 23000 nM at human TLR9 (setting [2]).

In the case of `Cc1cc(-c2[nH]c3ccc(C4CCN(CCC(N)=O)CC4)cc3c2C(C)C)cc(C)n1` [Example 314, 3-(4-(2-(2,6-dimethylpyridin-4-yl)-3-isopropyl-1H-indol-5-yl)piperidin-1-yl)propanamide], the half-inhibitory concentration (IC50) was 3.2 nM at human TLR8 (setting [1]), 1.4 nM on human TLR7 and 147 nM at human TLR9 (setting [2]).

Take `Cc1cc(-c2[nH]c3ccc(C4CCN(CC(=O)N(C)C5CCOC5)CC4)cc3c2C(C)C)cc(C)n1` (stereo not drawn) [Example 289, 2-(4-(2-(2,6-dimethylpyridin-4-yl)-3-isopropyl-1H-indol-5-yl)piperidin-1-yl)-N-methyl-N-(tetrahydrofuran-3-yl)acetamide]: the figures for the IC50 at human TLR8 (setting [1]), at human TLR7 and at human TLR9 (setting [2]) were 16.9 nM, 6 nM and 697 nM, respectively.

Consider `Cc1cc(-c2[nH]c3ccc(C4CCN(C(=O)C5(C)CCN(C(C)C)CC5)CC4)cc3c2C(C)C)cc(C)n1` [Example 177, (4-(2-(2,6-dimethylpyridin-4-yl)-3-isopropyl-1H-indol-5-yl)piperidin-1-yl)(1-isopropyl-4-methylpiperidin-4-yl)methanone], for which the figures for the IC50 on human TLR8 (setting [1]), against human TLR7 and at human TLR9 (setting [2]) were 67.2 nM, 13.1 nM and 937 nM, respectively.

`Cc1cc(-c2[nH]c3ccc(C4CCN(C(=O)CNCCO)CC4)cc3c2C(C)C)cc(C)n1` [Example 336, 1-(4-(2-(2,6-dimethylpyridin-4-yl)-3-isopropyl-1H-indol-5-yl)piperidin-1-yl)-2-((2-hydroxyethyl)amino)ethan-1-one]: the IC50 is 9.7 nM on human TLR8 (setting [1]), 1.5 nM against human TLR7 and 272 nM at human TLR9 (setting [2]).

For `CCc1c(-c2cc(Cl)ncc2OC)[nH]c2ccc(C3CCN(C4CCN(CC(C)C)CC4)CC3)cc12` [Example 763, 2-(2-chloro-5-methoxypyridin-4-yl)-3-ethyl-5-(1′-isobutyl-[1,4′-bipiperidin]-4-yl)-1H-indole], the values for the half-maximal inhibitory concentration (IC50) on human TLR8 (setting [1]), against human TLR7 and at human TLR9 (setting [2]) were 514 nM, 4950 nM and 1900 nM, respectively.

As to `Cc1cc(-c2[nH]c3ccc(C4CCN(C(=O)CCN5CCOCC5)CC4)cc3c2C(C)C)c(F)cn1` [Example 657, 1-(4-(2-(5-fluoro-2-methylpyridin-4-yl)-3-isopropyl-1H-indol-5-yl)piperidin-1-yl)-3-morpholinopropan-1-one], the figures for the IC50 on human TLR8 (setting [1]), at human TLR7 and at human TLR9 (setting [2]) were 5.3 nM, 5.9 nM and 5680 nM, respectively.

Take `Cc1nccc(-c2[nH]c3ccc(C4CCN(C(=O)C5CC(=O)N(C)C5)CC4)cc3c2C(C)C)c1F` (stereo not drawn) [Example 582, 4-(4-(2-(3-fluoro-2-methylpyridin-4-yl)-3-isopropyl-1H-indol-5-yl)piperidine-1-carbonyl)-1-methylpyrrolidin-2-one]: the figures for the IC50 at human TLR8 (setting [1]), against human TLR7 and at human TLR9 (setting [2]) were 48 nM, 30.1 nM and over 50000 nM, respectively.

Regarding `Cc1cc(-c2[nH]c3ccc(C4CCN(C(=O)Cc5cn(C)cn5)CC4)cc3c2C(C)C)cc(C)n1` [Example 137, 1-(4-(2-(2,6-dimethylpyridin-4-yl)-3-isopropyl-1H-indol-5-yl)piperidin-1-yl)-2-(1-methyl-1H-imidazol-4-yl)ethan-1-one], the IC50 was 39.1 nM on human TLR8 (setting [1]), 8.2 nM against human TLR7 and 1780 nM on human TLR9 (setting [2]).
